Test results taken from patent US20130196935A1, “SYNTHETIC GLYCOAMINE COMPOUNDS” (ANIMAL CELL THERAPIES INC., priority 2012, published 2013).
Several values for one entry are separate records, joined by “and”; a condition that tells them apart may be missing. Equal values may be shown once.

How the values were obtained:
[1] = test system: SVR cells; assay: Clonogenic survival (colony formation) of SVR cells; format: cell-based; conditions: for Colony # (single well): 200 SVR cells per well; for Colony # Average: average of 4 wells; for inhibition of colony formation compared to the control: two-tailed t-test; for inhibition of SVR cell colony formation: concentrations 1 mM and higher, compared to control
Procedure: 1. Testing concentrations of ACT-1 and ACT-2: 1 mM, 500 μM, 250 μM, 125 μM, and 62.5 μM. 2. Prepared 2 mM ACT-1=0.91 mg/mL and 2 mM ACT-2=0.91 mg/mL in SVR complete culture medium. Sterilized the test article solutions by filtering through 0.2 μm syringe filters (Whatman Puradisc 25 mm, Cat #6780-2502). 3. Prepared solutions in 2× testing concentrations (2 mM, 1 mM, 500 μM, 250 μM, 125 μM and 62.5 μM) by preparing 2× dilution from 2 mM stock solution (mixing 2.4 mL culture medium with 2.4 mL of 2 mM solution, and make serial 2× dilutions the same way). 4. Pipetted 0.5 mL of test articles to 24-well plates according to the layout below (ACT-1 in one plate and ACT-2 in another plate). Each concentration will be tested in quadruplicate.
5. Trypsinized SVR cells (P1) and prepared 400 cells/mL solution in culture medium. Pipetted 0.5 mL cell solution to each well (200 cells/well). Mixed well by gentle pipetting. 6. Cultured cells at 37° C. incubator for 6 days. 7. Aspirated medium from the wells. Rinsed cells once with 1 mL of PBS (LONZA, Cat #: 17-516Q). 8. Fixed cells with 0.5 mL of freshly prepared 4% paraformaldehyde (PFA) (1:8 dilution of 32% PFA solution in PBS; 32% PFA solution: Electron Microscopy Sciences Cat #:15714) in PBS at RT for 20 min. Removed PFA and washed cells once with 1 mL PBS. 9. Stained cells with 0.3 mL of Mayer's hematoxylin solution (Sigma Cat#: MHS1-100ML) at RT for 15 min. Removed hematoxylin solution and rinsed cells twice with 1 mL of warm tap water. 10. Counted cell colonies under microscope with 40× magnification (divide the wells with makers into 4 sections. Count the numbers of colonies from each section and add the numbers to yield the final colony numbers).
1. Testing concentrations of ACT-1 and ACT-2: 4 mM, 2 mM, 1 mM, and 0.5 mM. 2. The experimental procedures were the same as in Experiment 1-1, except that the total volume in each well was 0.6 mL (0.3 mL of 2× concentrated test articles and 0.3 mL of 667 cells/mL cell solution).
3. Cultured cells at 37° C. incubator for 6 days. 4. Visualized the cell colonies by staining with hematoxylin as described above. 5. Counted the colonies under microscope.

[2] = test system: SVR cells; assay: TUNEL assay, apoptosis induction of SVR cells; format: cell-based; conditions: 2 mM, 24 hours
Procedure: 1. Testing concentrations of ACT-1 and ACT-2: 2 mM. 2. Prepared 4 mM ACT-1=1.82 mg/mL and 4 mM ACT-2=1.81 mg/mL in complete culture medium. Sterilized the drug solutions by filtering through 0.2 μm syringe filters. 3. Added 100 μl of test articles or culture medium to 4 wells for each ACT-1 and ACT-2 in a 96-well plate. Added 100 μl of culture medium to 5 wells (for non-treated and DNase treatment controls). 4. Trypsinized SVR cells (P3) and prepared 5×10^3 cells/mL solution in culture medium. Added 100 μl of cell solution to each well (500 cells/well). Mixed well by gentle pipetting. 5. Incubated at 37° C. for 24 hours. 6. Removed medium and added 100 μl of 4% PFA in PBS to the wells. Incubated at room temperature for 15 min. 7. Removed PFA solution and 100 μl of permeabilization reagent (0.25% Triton X-100 in PBS) (Triton X-100: Sigma Cat #: T8787-100ML). Incubated at room temperature for 20 min. Washed twice with deionized water. 8. TUNEL reaction was then carried out exactly as the protocol provided by the kit (Invitrogen Click-iT TUNEL Alexa Fluor Imaging Assay Kit, Cat #: C10245). Treated one well (culture medium control) with DNase as positive control for the TUNEL reaction. The reaction volume for each well was 50 μl. 9. After TdT and Click-iT reactions, DNA was stained with Hoechst 33342 (provided by the kit) 1:5,000 in PBS at RT for 15 min. Washed wells three times with PBS. 10. […]

[3] = MTS cytotoxicity assay on primary BAEC; format: cell-based, bovine; conditions: bovine, primary bovine aortic endothelial cells (BAEC), read-out: Viability of BAEC cells compared to control, Ave (%)
Procedure: (§1) 1. Testing concentrations of ACT-1 and ACT-2: 8 mM, 4 mM, 2 mM, 1 mM, 0.5 mM, 0.25 mM and 0.125 mM. 2. Trypsinized exponentially growing BAECs (P1) and SVR cells (P4), and prepared 5×10^4 cells/mL cell solution for BAECs and […] for SVR cells. Add 100 μl of cell solution to 96-well plates to achieve 5,000 cells/well for BAECs and 1,000 cells/well for SVR cells. Incubated cells at 37° C. overnight. 3. Prepared 8 mM=3.64 mg/mL and 8 mM ACT-2=3.62 mg/mL in BAEC complete culture medium. Sterilized the drug solutions by filtering through 0.2 μm syringe filters. 4. Prepared 2× serial dilutions from 8 mM stock solution by mixing 0.6 mL drug solution with 0.6 mL culture medium. 5. Aspirated medium from wells and added 80 μl of test article solutions to the wells according to the layout below.
(§2) 6. Incubated cells at 37° C. for 48 hours. 7. Aspirated the medium from wells and added fresh 70 μl culture medium to the wells. 8. Prepared MTS reagent (Promega CellTiter 96 Aqueous MTS assay reagents, Cat #G5421) by mixing 2.4 mL MTS, 120 μl PMS and 3.779 mL culture medium. Added 50 μl MTS assay reagent to the wells using a multiple channel pipette. 9. Incubate at 37° C. for 2 hours. Read absorbance at 490 nm using a plate reader.

[4] = test system: primary bovine aortic endothelial cells (BAEC); assay: MTS cytotoxicity assay on primary BAEC; format: cell-based; conditions: 0.125-8 mM, 48 hours
Procedure: as §1, §2

[5] = MTS cytotoxicity assay on SVR cells; format: cell-based; conditions: mouse, SVR cells, 48 hours, MTS, read-out: Viability of SVR cells compared to control, Ave (%)
Procedure: as §1, §2

[6] = test system: SVR cells; assay: MTS cytotoxicity assay on SVR cells; format: cell-based; conditions: for significance level P, cytotoxic effect on SVR cells compared to the control: 8 mM, two-tailed t-test; for cytotoxic effect on SVR cells: only at 8 mM, 48 hours, MTS
Procedure: as §1, §2

[7] = Experiment A, 62.5 μM, six days after treatment
[8] = Experiment A, 62.5 μM, six days
[9] = Experiment A, 125 μM, six days after treatment
[10] = Experiment A, 250 μM, six days after treatment
[11] = Experiment A, 500 μM, six days after treatment
[12] = Experiment A, 1000 μM, six days after treatment
[13] = Experiment A, 1000 μM, six days
[14] = Experiment B (higher concentrations), 0.5 mM, six days
[15] = Experiment B (higher concentrations), 1 mM, six days
[16] = Experiment B (higher concentrations), 2 mM, six days
[17] = Experiment B (higher concentrations), 4 mM, six days

Row | Compound | Colony # (single well) [1, 7] | Colony # Average [1, 8] | Colony # (single well) [1, 9] | Colony # Average ([1]; Experiment A, 125 μM, six days) | Colony # (single well) [1, 10] | Colony # Average ([1]; Experiment A, 250 μM, six days) | Colony # (single well) [1, 11] | Colony # Average ([1]; Experiment A, 500 μM, six days) | Colony # (single well) [1, 12] | Colony # Average [1, 13] | Colony # (single well) [1, 14] | Colony # (single well) [1, 15] | Colony # (single well) [1, 16] | Colony # (single well) [1, 17] | Colony # Average ([1]; Experiment B, 0.5 mM, six days) | Colony # Average ([1]; Experiment B, 1 mM, six days) | Colony # Average ([1]; Experiment B, 2 mM, six days) | Colony # Average ([1]; Experiment B, 4 mM, six days) | inhibition of SVR cell colony formation ([1]; Experiment B) | TUNEL nuclear staining (apoptosis induction) [2] | also measured
1 | CC(C)CC(NC[C@@]1(O)OC[C@@H](O)[C@@H](O[C@@H]2O[C@H](CO)[C@H](O)[C@H](O)[C@H]2O)[C@@H]1O)C(=O)O (stereo in doubt) [ACT-1] | 43 and 42 and 41 and 39 | 41.3 | 44 and 41 and 39 | 40.8 | 43 and 40 and 41 and 34 | 39.5 | 42 and 41 and 33 | 39.3 | 34 and 32 | 33.0 | 40 and 45 and 35 | 38 and 32 and 33 and 34 | 1 and 2 | 0 | 40.0 | 34.3 | 1.8 | 0.0 | inhibited SVR cell colony formation | nuclear staining was not observed | inhibition of colony formation compared to the control ([1]; Experiment A, 1 mM): significant inhibition of colony formation; viability at 48 h, 0.125 mM [3]: 104%; viability at 48 h, 0.25 mM [3]: 112%; viability at 48 h, 0.5 mM [3]: 118%; viability at 48 h, 1 mM [3]: 126%; viability at 48 h, 2 mM [3]: 122%; viability at 48 h, 4 mM [3]: 112%; viability at 48 h, 8 mM [3]: 99.4%; cytotoxic effect on primary BAECs [4]: did not show significant cytotoxic effect; viability at 48 h, 0.125 mM [5]: 97.4%; viability at 48 h, 0.25 mM [5]: 99.7%; viability at 48 h, 0.5 mM [5]: 100%; viability at 48 h, 1 mM [5]: 97.7%; viability at 48 h, 2 mM [5]: 95.8%; viability at 48 h, 4 mM [5]: 93.1%; viability at 48 h, 8 mM [5]: 71.2%; significance level P, cytotoxic effect on SVR cells compared to the control [6]: 0.016; cytotoxic effect on SVR cells [6]: significant cytotoxic effect
2 | O=C(O)[C@H](CC1CC1)NC[C@@]1(O)OC[C@@H](O)[C@@H](O[C@@H]2O[C@H](CO)[C@H](O)[C@H](O)[C@H]2O)[C@@H]1O [ACT-2] | 49 and 51 and 43 and 48 | 47.8 | 44 and 42 and 39 | 41.8 | 50 and 44 and 39 and 37 | 42.5 | 39 and 31 and 33 and 35 | 34.5 | 33 and 36 and 39 and 28 | 34.0 | 38 and 34 and 40 and 31 | 13 and 23 and 19 and 16 | 0 | 0 | 35.8 | 17.8 | 0.0 | 0.0 | inhibited SVR cell colony formation | nuclear staining was not observed | inhibition of colony formation compared to the control ([1]; Experiment A, 0.5 mM): significant inhibition of colony formation; viability at 48 h, 0.125 mM [3]: 107%; viability at 48 h, 0.25 mM [3]: 133%; viability at 48 h, 0.5 mM [3]: 136%; viability at 48 h, 1 mM [3]: 132%; viability at 48 h, 2 mM [3]: 133%; viability at 48 h, 4 mM [3]: 118%; viability at 48 h, 8 mM [3]: 106%; cytotoxic effect on primary BAECs [4]: did not show significant cytotoxic effect; viability at 48 h, 0.125 mM [5]: 98.2%; viability at 48 h, 0.25 mM [5]: 105%; viability at 48 h, 0.5 mM [5]: 98.7%; viability at 48 h, 1 mM [5]: 92.5%; viability at 48 h, 2 mM [5]: 95.1%; viability at 48 h, 4 mM [5]: 87.8%; viability at 48 h, 8 mM [5]: 76.1%; significance level P, cytotoxic effect on SVR cells compared to the control [6]: 0.018; cytotoxic effect on SVR cells [6]: significant cytotoxic effect
